Assay results from patent publication US8008328B2, “Methods for the treatment of diabetes-associated dyslipdemia” (Reddy US Therapeutics, Inc., priority 2007, dated 2011).

Columns and labels:
[1] = test system: insulin receptor substrate (IRS-1); assay: IRS-1 Ser307 phosphorylation in differentiated 3T3L1 adipocytes (Western blot); assay type: cell-based, Murine; settings: FIG. 1; for IRS-1 phosphorylation: agent alone compared to untreated, 3T3L1 adipocytes
db/db mice = assay: Plasma insulin and lipids in db/db diabetic mouse model; assay type: in vivo
Description: The animals were 40 Female db/db diabetic mice, 4 weeks old on a diet of normal rodent chow. The tests were conducted on five groups, with 7-8 mice per group.
Group 1: Control CMC-tween, oral pipetting, 7 mice. Once a day for 28 days, 60 μl/mouse.
Group 2: Niacin 2.5 g/kg (roughly), in drinking water for 28 days, 7 mice (10 mg/mL in water).
Once a day for 28 days, 30 ul/mouse. (2 mg/mL in water)
Group 5: Pioglitazone 30 mg/kg/day, oral pipetting, 7 mice. Once a day for 28 days, 60 μL/mouse. (15 mg/mL in Vehicle)
Body weight was measured in all groups once a week. Food consumption was monitored once a week. All animals were fasted for 4 hours and plasma glucose levels were measured by OneTouch™ Ultra blood glucose meter. 35 animals were divided to 5 groups with 7 mice per group base on plasma glucose level. (Plasma glucose >120 mg/dL as a cut off for animal selection). 200 μL blood samples were collected from retro-orbital vein for plasma insulin level and lipids profile at baseline.
Treatment started for all groups and lasted for 28 days. 4 hours fast blood samples were collected for plasma insulin level and lipids profile at 2 weeks and 4 weeks post dose. The Oral Glucose Tolerance Test (“OGTT”) was conducted at day 16 and day 30 post dose.

THP-1 = assay: Niacin-induced PGD2 secretion in PMA-differentiated THP-1 macrophages; assay type: cell-based, human; settings: FIG. 4
[2] = db/db diabetic dyslipidemia model, FIG. 3

With O=C(O)c1cccnc1 [niacin, pyridine-3-carboxylic acid] the IRS-1 phosphorylation [1] was “significantly increased”, the HDL (db/db mice; [2]) was “increase” and the triglycerides (db/db mice; [2]) was “decrease”. The “PGD2 levels in culture medium” value (THP-1; compared to controls) was “increased”.
TNFα was tested, and the IRS-1 phosphorylation [1] was “increased”.
With Cc1cnc(NC(=O)C2=C(O)c3ccccc3S(=O)(=O)N2C)s1 [meloxicam] the “effect on TNFα-induced IRS1 phosphorylation” value ([1]; cells incubated with compound 2 hours prior to TNFα (20 ng/mL, 30 minutes)) was “inhibited”, the insulin levels (db/db mice; db/db mice, 2 mg/kg/day for two weeks) was “reduced” and the plasma insulin (db/db mice; db/db mice, treatment up to 28 days, FIG. 2) was “significantly reduced”. The “effect on niacin's ability to increase HDL or decrease triglycerides” value (db/db mice; meloxicam added to niacin, db/db mice, FIG. 3) was “did not affect” and the “effect on niacin-induced increase in PGD2 levels” value (THP-1; compound 30 minutes prior to niacin) was “inhibited”.
